Experimental data as given in ChEMBL document CHEMBL2407077, “Cycloforskamide, a cytotoxic macrocyclic peptide from the sea slug Pleurobranchus forskalii” (J Nat Prod, 2013).
Numbered stars: 1 amine (or outer) side, 2 acyl side, 3 side chain; on linkers, the order of the positions; unused ones are H or OH. Square brackets hold non-standard residues; d marks the D form. Peptide text beside a SMILES is read from it. X2 = CC[C@H](C)[C@@H](N[*:1])C1=N[C@H](C(=O)[*:2])CS1; X1 = O=C([C@@H]1CSC([C@H]2CCCN2[*:1])=N1)[*:2]

Test system: P388
Experiment: Cytotoxicity against mouse P388 cells after 3 days by MTT assay
Assay type: functional, cell-based
Conditions: P388, 72 h

| Compound | IC50 [µM] |
| --- | --- |
| COc1cccc2c1C(=O)c1c(O)c3c(c(O)c1C2=O)C[C@@](O)(C(=O)CO)C[C@@H]3O[C@H]1C[C@H](N)[C@H](O)[C@H](C)O1 [DOXORUBICIN] | 0.21 |
| CC[C@H](C)[C@@H]1NC(=O)[C@@H]2CSC(=N2)[C@H]2CCCN2C(=O)[C@H]([C@@H](C)O)NC(=O)[C@H](C(C)C)NC(=O)[C@H](C(C)C)NC(=O)[C@H]([C@@H](C)O)NC(=O)[C@@H]2CSC(=N2)[C@@H]([C@@H](C)CC)NC(=O)[C@H](C(C)C)NC(=O)[C@@H]2CSC(=N2)[C@H]2CCCN2C1=O [CYCLOFORSKAMIDE] (cyclo(I[X1]V[X2]TVVT[X1])) | 5.8 |
